According to ChEMBL document CHEMBL1139352, “Synthesis and evaluation of novel inhibitors of Pim-1 and Pim-2 protein kinases” (J Med Chem, 2009):

Legend:
[1] = molecular target: Hepatocyte growth factor receptor (Homo sapiens) (UniProt P08581); assay: Inhibition of MET at 5 uM
[2] = system: Mus musculus; assay: Toxicity in Swiss Webster mouse assessed as Na+ level at 10 mg/kg, ip daily for 7 days measured after 7 days; type: organism-based; set-up: dose 10 mg/kg, route intraperitoneal; settings: in vivo, 168 h
[3] = molecular target: 5'-AMP-activated protein kinase subunit beta-1 (Homo sapiens) (UniProt Q9Y478); assay: Inhibition of AMPK at 5 uM
Sequence of 5'-AMP-activated protein kinase subunit beta-1 (Homo sapiens) (Q9Y478 whole entry): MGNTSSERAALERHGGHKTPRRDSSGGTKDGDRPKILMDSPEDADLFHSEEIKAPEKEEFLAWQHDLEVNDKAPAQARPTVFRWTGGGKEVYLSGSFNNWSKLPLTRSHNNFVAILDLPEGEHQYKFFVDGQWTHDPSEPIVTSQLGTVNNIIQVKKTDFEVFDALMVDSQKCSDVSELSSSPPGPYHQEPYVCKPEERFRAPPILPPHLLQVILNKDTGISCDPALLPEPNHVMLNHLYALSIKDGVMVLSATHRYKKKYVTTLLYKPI

[4] = molecular target: Tyrosine-protein kinase BTK (Homo sapiens) (UniProt Q06187); assay: Inhibition of BTK at 5 uM
Sequence of Tyrosine-protein kinase BTK (Homo sapiens) (Q06187 whole entry): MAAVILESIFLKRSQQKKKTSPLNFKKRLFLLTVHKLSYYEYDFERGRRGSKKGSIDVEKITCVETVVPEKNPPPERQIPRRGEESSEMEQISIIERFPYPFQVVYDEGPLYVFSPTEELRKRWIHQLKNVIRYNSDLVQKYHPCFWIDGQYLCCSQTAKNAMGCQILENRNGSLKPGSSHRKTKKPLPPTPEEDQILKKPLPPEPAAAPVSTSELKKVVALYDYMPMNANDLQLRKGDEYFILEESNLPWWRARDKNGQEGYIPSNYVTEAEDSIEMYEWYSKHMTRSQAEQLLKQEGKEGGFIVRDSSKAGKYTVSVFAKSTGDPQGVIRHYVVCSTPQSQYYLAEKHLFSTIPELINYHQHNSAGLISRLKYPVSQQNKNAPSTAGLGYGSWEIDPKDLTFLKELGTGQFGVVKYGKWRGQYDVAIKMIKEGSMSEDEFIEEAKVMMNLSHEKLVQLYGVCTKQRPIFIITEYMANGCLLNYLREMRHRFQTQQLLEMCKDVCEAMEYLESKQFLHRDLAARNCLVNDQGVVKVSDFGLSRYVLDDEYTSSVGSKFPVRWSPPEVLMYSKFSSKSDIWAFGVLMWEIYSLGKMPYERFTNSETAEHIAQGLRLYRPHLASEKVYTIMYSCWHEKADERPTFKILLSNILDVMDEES

[5] = system: Mus musculus; assay: Toxicity in Swiss Webster mouse assessed as alanine aminotransferase level at 3 mg/kg, ip daily for 7 days measured after 7 days; type: organism-based; set-up: dose 3 mg/kg, route intraperitoneal; settings: in vivo, 168 h
[6] = molecular target: Tyrosine-protein kinase Lyn (Homo sapiens) (UniProt P07948); assay: Inhibition of LYN at 5 uM
Sequence of Tyrosine-protein kinase Lyn (Homo sapiens) (P07948 2-512 limits assumed): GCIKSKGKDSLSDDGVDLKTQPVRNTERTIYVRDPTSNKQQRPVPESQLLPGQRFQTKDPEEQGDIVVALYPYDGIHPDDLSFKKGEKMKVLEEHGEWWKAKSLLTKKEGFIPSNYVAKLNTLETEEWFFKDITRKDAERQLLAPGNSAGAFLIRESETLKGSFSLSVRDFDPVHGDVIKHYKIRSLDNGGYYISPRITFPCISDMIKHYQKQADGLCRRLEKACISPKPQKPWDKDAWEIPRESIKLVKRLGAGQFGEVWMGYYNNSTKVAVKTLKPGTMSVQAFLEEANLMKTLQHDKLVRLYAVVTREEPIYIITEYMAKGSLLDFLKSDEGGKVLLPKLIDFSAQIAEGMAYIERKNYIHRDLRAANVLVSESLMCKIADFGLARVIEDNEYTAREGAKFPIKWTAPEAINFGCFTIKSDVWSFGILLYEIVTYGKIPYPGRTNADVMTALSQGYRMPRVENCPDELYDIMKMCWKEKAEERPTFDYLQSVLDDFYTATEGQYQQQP

[7] = molecular target: Tyrosine-protein kinase Fyn (Homo sapiens) (UniProt P06241); assay: Inhibition of FYN at 5 uM
Sequence of Tyrosine-protein kinase Fyn (Homo sapiens) (P06241 2-537 limits assumed): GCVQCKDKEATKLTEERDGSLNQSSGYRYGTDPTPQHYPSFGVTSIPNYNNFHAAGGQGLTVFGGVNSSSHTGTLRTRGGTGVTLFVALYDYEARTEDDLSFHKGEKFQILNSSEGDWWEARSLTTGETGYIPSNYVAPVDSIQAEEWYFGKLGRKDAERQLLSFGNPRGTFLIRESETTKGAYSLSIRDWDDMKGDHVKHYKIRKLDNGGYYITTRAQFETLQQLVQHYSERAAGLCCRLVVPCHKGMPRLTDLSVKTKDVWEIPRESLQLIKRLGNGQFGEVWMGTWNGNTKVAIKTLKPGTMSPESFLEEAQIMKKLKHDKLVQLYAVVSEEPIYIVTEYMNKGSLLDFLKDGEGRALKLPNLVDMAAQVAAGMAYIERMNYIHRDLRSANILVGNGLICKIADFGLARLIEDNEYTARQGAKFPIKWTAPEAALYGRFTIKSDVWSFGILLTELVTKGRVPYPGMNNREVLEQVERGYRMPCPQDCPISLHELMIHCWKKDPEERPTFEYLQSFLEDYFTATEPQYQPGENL

[8] = molecular target: Tyrosine-protein kinase SYK (Homo sapiens) (UniProt P43405); assay: Inhibition of SYK at 5 uM
[9] = molecular target: Insulin-like growth factor 1 receptor (Homo sapiens) (UniProt P08069); assay: Inhibition of IGF1R at 5 uM
[10] = system: Mus musculus; assay: Toxicity in Swiss Webster mouse assessed as glucose level at 50 mg/kg, ip daily for 7 days measured after 7 days; type: organism-based; set-up: dose 50 mg/kg, route intraperitoneal; settings: in vivo, 168 h
[11] = molecular target: Casein kinase I isoform delta (Homo sapiens) (UniProt P48730); assay: Inhibition of CK1delta at 5 uM
Sequence of Casein kinase I isoform delta (Homo sapiens) (P48730 whole entry, looked up, canonical isoform): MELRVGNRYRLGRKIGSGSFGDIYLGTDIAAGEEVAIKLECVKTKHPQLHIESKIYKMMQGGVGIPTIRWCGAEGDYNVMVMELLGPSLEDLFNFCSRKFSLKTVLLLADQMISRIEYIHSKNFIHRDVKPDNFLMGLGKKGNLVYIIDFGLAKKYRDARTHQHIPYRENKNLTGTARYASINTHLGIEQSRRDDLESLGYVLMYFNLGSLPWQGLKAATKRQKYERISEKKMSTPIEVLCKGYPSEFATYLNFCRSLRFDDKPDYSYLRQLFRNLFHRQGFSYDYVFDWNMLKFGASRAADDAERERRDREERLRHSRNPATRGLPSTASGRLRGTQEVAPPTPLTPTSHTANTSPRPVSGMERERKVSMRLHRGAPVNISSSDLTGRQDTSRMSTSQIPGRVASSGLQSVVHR

[12] = system: Mus musculus; assay: Toxicity in Swiss Webster mouse assessed as K+ level at 50 mg/kg, ip daily for 7 days measured after 7 days; type: organism-based; set-up: dose 50 mg/kg, route intraperitoneal; settings: in vivo, 168 h

Sequence of Hepatocyte growth factor receptor (Homo sapiens) (P08581 whole entry): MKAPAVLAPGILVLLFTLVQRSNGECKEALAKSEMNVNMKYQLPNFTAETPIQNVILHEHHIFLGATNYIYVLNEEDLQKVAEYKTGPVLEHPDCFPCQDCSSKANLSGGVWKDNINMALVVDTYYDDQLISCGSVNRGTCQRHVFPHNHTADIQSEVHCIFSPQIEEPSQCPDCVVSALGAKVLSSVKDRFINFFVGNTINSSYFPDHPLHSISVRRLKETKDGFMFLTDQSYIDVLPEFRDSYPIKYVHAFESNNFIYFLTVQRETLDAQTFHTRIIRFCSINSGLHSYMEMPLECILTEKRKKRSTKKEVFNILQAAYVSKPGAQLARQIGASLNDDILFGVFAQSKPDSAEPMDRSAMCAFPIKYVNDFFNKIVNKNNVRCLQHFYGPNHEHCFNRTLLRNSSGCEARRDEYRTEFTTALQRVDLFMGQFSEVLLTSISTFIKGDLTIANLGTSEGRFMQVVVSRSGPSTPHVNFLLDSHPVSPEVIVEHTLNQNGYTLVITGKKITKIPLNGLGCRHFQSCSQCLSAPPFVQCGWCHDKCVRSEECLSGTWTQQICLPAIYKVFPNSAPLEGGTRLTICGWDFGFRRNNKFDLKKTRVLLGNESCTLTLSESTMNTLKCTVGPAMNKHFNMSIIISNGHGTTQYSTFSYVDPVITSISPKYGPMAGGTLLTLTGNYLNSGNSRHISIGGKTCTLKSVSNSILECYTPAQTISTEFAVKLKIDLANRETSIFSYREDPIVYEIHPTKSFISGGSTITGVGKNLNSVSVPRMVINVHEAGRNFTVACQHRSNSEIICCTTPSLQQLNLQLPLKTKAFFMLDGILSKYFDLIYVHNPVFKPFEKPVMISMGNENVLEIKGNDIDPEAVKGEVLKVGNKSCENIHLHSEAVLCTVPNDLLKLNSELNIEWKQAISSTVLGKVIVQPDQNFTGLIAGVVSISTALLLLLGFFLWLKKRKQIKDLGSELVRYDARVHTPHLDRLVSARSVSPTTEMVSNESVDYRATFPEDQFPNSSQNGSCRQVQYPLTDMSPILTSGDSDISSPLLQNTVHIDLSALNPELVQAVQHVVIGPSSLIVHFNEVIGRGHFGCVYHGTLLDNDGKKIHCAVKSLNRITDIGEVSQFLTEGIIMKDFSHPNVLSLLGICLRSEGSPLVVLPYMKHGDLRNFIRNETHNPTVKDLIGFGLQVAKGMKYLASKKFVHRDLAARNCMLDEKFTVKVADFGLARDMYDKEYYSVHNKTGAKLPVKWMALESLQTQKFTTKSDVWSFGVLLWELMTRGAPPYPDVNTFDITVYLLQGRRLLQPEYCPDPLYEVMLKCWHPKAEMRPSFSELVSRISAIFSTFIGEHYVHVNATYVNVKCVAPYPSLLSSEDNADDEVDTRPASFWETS

For `CCCOc1ccc(/C=C2\SC(=O)NC2=O)cc1`, the inhibition [1] was -6%, the Activity [2] was 144 mmol/L and the inhibition [3] was 7%. The inhibition [4] was 7%, the Activity [5] was 40 U/L and the inhibition [6] was 8%. For the same compound, the inhibition [7] was 0%, the inhibition [8] was -3% and the inhibition [9] was -1%. The Activity [10] was 136 mg/dL, the inhibition [11] was 7% and the Activity [12] was 6.3 mmol/L.
